Test results from ChEMBL document CHEMBL1201862, “PubChem BioAssay data set” (2004).
Where “and” joins values, the source holds several entries; their conditions need not be identical. Equal entries are not always repeated. Calls of active or inactive are those of the source.

Assays:
[1] = molecular target: T1, Heat shock factor protein 1 (Mus musculus, UniProt P38532); test: inhibition of MG132-induced HSE-luciferase signal, confirmation, cell-based, NIH3T3, luminescence, dose retest (AID 2382); type: functional;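 note: NIH3T3 fibroblasts with HSF1-driven luciferase reporter stressed by proteasome inhibitor MG132; luminescence from HSF1-driven luciferase expression after 8 hours of MG132 stress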
T1 sequence (P38532 whole entry): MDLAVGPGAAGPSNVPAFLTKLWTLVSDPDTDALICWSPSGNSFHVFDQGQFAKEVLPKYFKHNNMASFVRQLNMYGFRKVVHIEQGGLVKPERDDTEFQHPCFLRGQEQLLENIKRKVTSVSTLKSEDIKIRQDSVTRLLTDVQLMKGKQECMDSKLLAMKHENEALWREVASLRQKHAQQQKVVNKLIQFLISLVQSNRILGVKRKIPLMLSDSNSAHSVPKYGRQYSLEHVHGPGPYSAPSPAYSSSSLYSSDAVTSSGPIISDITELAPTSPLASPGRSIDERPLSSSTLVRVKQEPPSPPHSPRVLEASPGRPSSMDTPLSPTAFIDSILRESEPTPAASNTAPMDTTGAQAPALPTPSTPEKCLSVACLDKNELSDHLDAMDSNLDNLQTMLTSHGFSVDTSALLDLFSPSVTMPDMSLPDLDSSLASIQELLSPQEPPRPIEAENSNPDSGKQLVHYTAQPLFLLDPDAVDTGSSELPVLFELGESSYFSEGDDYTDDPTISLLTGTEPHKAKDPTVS

Cytochrome P450 2C9 = Cytochrome P450 2C9 (Homo sapiens, UniProt P11712)
Cytochrome P450 2D6 = Cytochrome P450 2D6 (Homo sapiens, UniProt P10635);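 note: CYP2D6 member of a cytochrome P450 panel assay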
Cytochrome P450 3A4 = Cytochrome P450 3A4 (Homo sapiens, UniProt P08684);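 note: CYP3A4 tested as one member of a cytochrome P450 panel screen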
[2] = Luminescence Cell-Based Dose Retest to Confirm Inhibitors of Cancer Stem Cells. [Related pubchem assays (depositor defined):AID2717, AID2721]; type: functional; conditions: Homo sapiens
[3] = inhibitors of firefly luciferase expression or activity, dose response, H4 neuroglioma cells, luminescence (AID 1990); type: functional, cell-based
[4] = Luminescence Cell-Based Dose Response HTS to Identify Inhibitors of 5'UTR Stem-Loop Driven Prion Protein mRNA Translation in H4 Neuroglioblastoma Cells. [Related pubchem assays: 1827 (Project Summary), 1813 (Primary HTS)]; type: functional
[5] = inhibitors of SNCA 5'UTR-driven reporter translation, confirmation, H4 neuroglioma cells, luminescence (AID 1988); type: functional, cell-based
H4 = test: Luminescence Cell-Based Dose Response HTS to Identify Activators of 5'UTR Stem-Loop Driven Prion Protein mRNA Translation in H4 Neuroglioblastoma Cells. [Related pubchem assays: 1829 (Project Summary), 1814 (Primary HTS)]; type: functional; conditions: Homo sapiens
[6] = Luminescence Cell-Based Dose Response HTS to Identify Activators of Luciferase Translation or Activity in H4 […] Cells. [Related pubchem assays: 1829 (Project Summary), 1814 (Primary HTS)]; type: functional
Cytochrome P450 1A2 = molecular target: T2, Cytochrome P450 1A2 (Homo sapiens, UniProt P05177);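 note: PubChem cytochrome P450 panel assay, CYP1A2 panel member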
T2 sequence (P05177 whole entry): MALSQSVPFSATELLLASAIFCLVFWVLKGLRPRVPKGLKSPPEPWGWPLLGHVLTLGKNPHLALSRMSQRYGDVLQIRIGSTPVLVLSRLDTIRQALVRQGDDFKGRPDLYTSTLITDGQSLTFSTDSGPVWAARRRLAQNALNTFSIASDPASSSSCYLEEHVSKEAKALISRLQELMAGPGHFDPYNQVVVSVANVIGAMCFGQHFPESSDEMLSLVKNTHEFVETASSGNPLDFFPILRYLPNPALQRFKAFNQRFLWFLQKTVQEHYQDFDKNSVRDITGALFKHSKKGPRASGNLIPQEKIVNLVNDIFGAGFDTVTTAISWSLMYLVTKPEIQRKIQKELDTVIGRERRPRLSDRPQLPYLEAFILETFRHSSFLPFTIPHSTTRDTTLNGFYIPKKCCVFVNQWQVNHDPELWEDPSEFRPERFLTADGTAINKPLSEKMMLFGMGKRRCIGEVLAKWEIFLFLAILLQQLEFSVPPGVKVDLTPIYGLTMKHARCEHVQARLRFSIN

[7] = molecular target: T3, Rac GTPase-activating protein 1 (Homo sapiens, UniProt Q9H0H5); test: MgcRacGAP GTPase-activating activity inhibitors, confirmation, biochemical, ADP Hunter fluorescence, primary and confirmatory (AID 624330); type: functional
T3 sequence (Q9H0H5 whole entry): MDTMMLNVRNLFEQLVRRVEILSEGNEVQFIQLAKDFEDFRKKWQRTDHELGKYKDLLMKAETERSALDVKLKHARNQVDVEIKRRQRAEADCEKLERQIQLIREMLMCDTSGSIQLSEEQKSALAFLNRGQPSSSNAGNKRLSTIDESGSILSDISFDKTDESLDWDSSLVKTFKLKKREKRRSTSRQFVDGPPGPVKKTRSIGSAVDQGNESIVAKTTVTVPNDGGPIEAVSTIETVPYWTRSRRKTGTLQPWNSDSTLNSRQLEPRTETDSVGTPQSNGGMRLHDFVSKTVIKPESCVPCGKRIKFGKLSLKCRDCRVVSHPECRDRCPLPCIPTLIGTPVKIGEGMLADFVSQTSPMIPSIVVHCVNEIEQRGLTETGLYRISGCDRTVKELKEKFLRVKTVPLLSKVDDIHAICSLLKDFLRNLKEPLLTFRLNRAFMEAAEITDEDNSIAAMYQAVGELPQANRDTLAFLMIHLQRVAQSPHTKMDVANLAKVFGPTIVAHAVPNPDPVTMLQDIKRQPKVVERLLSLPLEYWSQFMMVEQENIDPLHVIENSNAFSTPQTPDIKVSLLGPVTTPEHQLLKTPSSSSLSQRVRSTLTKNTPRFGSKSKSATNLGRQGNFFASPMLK

Chain of Cytochrome P450 2C9 (P11712 whole entry): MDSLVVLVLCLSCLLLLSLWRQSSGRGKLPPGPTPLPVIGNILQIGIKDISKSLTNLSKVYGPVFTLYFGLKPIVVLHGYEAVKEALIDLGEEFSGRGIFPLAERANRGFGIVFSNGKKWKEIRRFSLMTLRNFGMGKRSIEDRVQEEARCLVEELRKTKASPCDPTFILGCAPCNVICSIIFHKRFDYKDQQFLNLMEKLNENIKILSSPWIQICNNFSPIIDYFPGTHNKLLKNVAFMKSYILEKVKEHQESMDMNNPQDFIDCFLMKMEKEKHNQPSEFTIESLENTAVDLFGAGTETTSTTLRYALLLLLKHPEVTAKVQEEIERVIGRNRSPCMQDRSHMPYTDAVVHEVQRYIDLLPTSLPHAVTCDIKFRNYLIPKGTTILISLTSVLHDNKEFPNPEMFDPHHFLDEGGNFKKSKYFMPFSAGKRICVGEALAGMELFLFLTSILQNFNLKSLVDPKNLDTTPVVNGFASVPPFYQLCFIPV
Chain of Cytochrome P450 2D6 (P10635 whole entry): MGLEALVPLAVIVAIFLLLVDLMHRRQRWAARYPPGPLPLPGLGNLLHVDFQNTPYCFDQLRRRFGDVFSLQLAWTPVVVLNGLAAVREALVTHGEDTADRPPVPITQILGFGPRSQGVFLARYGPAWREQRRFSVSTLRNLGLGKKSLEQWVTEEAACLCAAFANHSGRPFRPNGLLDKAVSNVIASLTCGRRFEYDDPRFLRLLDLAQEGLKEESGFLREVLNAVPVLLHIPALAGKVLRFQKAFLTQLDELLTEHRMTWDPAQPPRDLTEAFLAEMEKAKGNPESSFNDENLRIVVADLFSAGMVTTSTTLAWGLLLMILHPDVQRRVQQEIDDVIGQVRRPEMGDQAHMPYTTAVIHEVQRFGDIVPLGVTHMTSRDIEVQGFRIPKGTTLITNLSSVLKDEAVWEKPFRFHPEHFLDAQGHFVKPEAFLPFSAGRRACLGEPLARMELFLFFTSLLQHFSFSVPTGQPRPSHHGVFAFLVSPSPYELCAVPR
Chain of Cytochrome P450 3A4 (P08684 whole entry): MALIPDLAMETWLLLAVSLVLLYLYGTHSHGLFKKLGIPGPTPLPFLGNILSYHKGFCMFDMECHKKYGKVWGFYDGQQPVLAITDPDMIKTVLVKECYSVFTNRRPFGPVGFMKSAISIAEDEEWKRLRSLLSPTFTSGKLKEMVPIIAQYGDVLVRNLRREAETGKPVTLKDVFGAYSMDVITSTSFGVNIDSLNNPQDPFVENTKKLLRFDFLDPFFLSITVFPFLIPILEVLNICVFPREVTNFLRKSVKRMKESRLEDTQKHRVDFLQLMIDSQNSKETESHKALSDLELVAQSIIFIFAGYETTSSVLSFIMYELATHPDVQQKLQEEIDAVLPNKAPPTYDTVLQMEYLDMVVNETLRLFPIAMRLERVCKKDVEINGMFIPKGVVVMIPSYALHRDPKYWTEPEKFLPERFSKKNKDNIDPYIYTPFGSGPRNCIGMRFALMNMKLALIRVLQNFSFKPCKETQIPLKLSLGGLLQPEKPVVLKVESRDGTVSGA

CCOC(=O)Cn1c(CCC(=O)O)ccc1-c1ccc(F)cc1
EC50 [1]: > 195 µM (not active)

O=C1CN=C(c2cccs2)c2c(sc3c2CCCC3)N1
AC50 (Cytochrome P450 2C9): 35.5 µM (inconclusive)

Cc1noc(C)c1-c1ccc2ncnc(NCCN3CCOCC3)c2c1
AC50 (Cytochrome P450 2D6): 31.6 µM (inconclusive)

Cc1onc(-c2c(Cl)cccc2Cl)c1C(=O)Nc1ccc2c(c1)OCO2
AC50 (Cytochrome P450 3A4): 1 µM (inconclusive)

O=C1Nc2ccccc2C1=Nc1sc2c(c1C(=O)NCCc1ccccc1)CCCC2
AC50 (Cytochrome P450 2D6): 4.47 µM (inconclusive)

CCOc1ccccc1C(=O)Nc1ccc(NC(=O)c2ccccc2)cc1
EC50 [1]: > 195 µM (not active)

COc1ccc(S(=O)(=O)NCC2CCCN(Cc3ccc(C)o3)C2)cc1 (stereo unspecified)
EC50 [1]: > 195 µM (not active)

COC(=O)C1C(=O)C2=C(CC1C)NC(=O)CC2c1cccc(C)c1 (stereo unspecified)
AC50 [2]: > 195 µM (inactive)
AC50 (Cytochrome P450 2C9): 15.8 µM (inconclusive)

Cc1c(CCC(=O)N[C@@H](C)C(=O)O)c(=O)oc2cc3oc4c(c3cc12)CCCC4
EC50 [3]: 12.7 µM (active)
EC50 [4]: 17 µM (active)
EC50 [5]: 14.4 µM (active)

COc1ccc2c(c1OC)C(=O)OC2Nc1ccc(S(=O)(=O)N=C(N)N)cc1 (stereo unspecified)
EC50 [1]: > 195 µM (not active)

CC(C)(C)C(=O)N1CCN(CCN2C(=O)c3cccc4cccc(c34)C2=O)CC1
EC50 [1]: > 195 µM (not active)

CN1CCN(S(=O)(=O)c2cccc(C(=O)Nc3cc(C(F)(F)F)ccc3N3CCCCC3)c2)CC1
AC50 [2]: 2.5 µM (active)

Cc1ccc(-c2ccc(=O)n(CCC(=O)NCCN3CCCCC3C)n2)cc1 (stereo unspecified)
EC50 [1]: > 195 µM (not active)

CCOc1ccccc1NC(=O)CSc1nnc(-c2ccco2)n1Cc1ccco1
EC50 [3]: > 120 µM (not active)
EC50 [4]: > 120 µM (not active)
EC50 [5]: > 120 µM (not active)

CCOC(=O)Cn1nnc2c(sc3nc4c(c(-c5ccccc5)c32)CCC4)c1=O
EC50 [3]: > 120 µM (not active)
EC50 [4]: 3.88 µM (active)
EC50 [5]: > 120 µM (not active)

Cc1onc(-c2ccccc2)c1C(=O)N1CCN(S(=O)(=O)c2ccc(Cl)cc2)CC1
EC50 [3]: > 120 µM (not active)
EC50 [4]: > 120 µM (not active)
EC50 [5]: > 120 µM (not active)

CC(Oc1ccccc1)C(=O)NC1=NCCS1 (stereo unspecified)
EC50 (H4): 18.9 µM (active)
EC50 [6]: 94.2 µM (active)

N#Cc1ccsc1NC(=O)COC(=O)c1ccc2ccccc2c1
EC50 (H4): 17.5 µM (active)

CCCCCn1c(=O)c(C(=O)Nc2ccccn2)c(O)c2ccccc21
EC50 [3]: > 120 µM (not active)
EC50 [4]: 11.2 µM (active)
EC50 [5]: 9.51 µM (active)
EC50 [1]: > 195 µM (not active)

CCN(CC)C1=NC(=[N+](CC)CC)c2ccccc21
AC50 (Cytochrome P450 2D6): 14.1 µM (inconclusive)

COc1cc(S(=O)(=O)N2CCCCCC2)c(OC)cc1Br
AC50 [2]: 1.01 µM (active)

CCOc1ccc(C(=O)Nc2ccc3nc(N4CCN(CC)CC4)cc(C)c3c2)cc1
EC50 [3]: 10.3 µM (active)
EC50 [4]: > 120 µM (not active)
EC50 [5]: > 120 µM (not active)

COc1ccc2c(c1)c(=O)oc1c(C)c(OCC(=O)N3CCc4ccccc4C3)ccc12
AC50 (Cytochrome P450 3A4): 3.16 µM (inconclusive)

O=[N+]([O-])c1ccc(N2CCN(Cc3ccccc3)CC2)c(S(=O)(=O)N2CCOCC2)c1
AC50 (Cytochrome P450 3A4): 12.6 µM (inconclusive)

CN1CCN(CC(=O)Nc2nnc(-c3cccs3)s2)CC1
EC50 [1]: > 195 µM (not active)

CCC(CC)C(=O)Nc1cccc(/C(C)=N/NC(=O)c2c(Br)cnn2C)c1
AC50 (Cytochrome P450 1A2): 12.6 µM (inconclusive)
AC50 (Cytochrome P450 2C9): 8.91 µM (inconclusive)

CC(=O)N/N=C(\C)CC(=O)NC(C)(C)C
EC50 [1]: > 195 µM (not active)

O=[N+]([O-])c1ccccc1CCc1cnc(Cl)s1
EC50 [1]: > 195 µM (not active)

CCOC(=O)c1c(C)[nH]c(C(=O)Nc2ccc(NC(C)=O)cc2)c1C
EC50 [3]: 10.9 µM (active)
EC50 [4]: 3.99 µM (active)
EC50 [5]: 10.9 µM (active)

O=S(=O)(c1ccc(F)cc1)N1CCCC(CO)C1 (stereo unspecified)
AC50 (Cytochrome P450 3A4): 25.1 µM (inconclusive)

N=C(NOC(=O)c1cccc(F)c1)c1ccccc1
EC50 [6]: > 120 µM (not active)

COc1ccc(Oc2ncc3nc(CCc4ccccc4)c(=O)n(C)c3n2)cc1
AC50 (Cytochrome P450 3A4): 7.94 µM (inconclusive)

COc1ccc(CNC(=O)Cc2csc(Nc3nc(S)nc4ccccc34)n2)cc1
AC50 (Cytochrome P450 2D6): 0.447 µM (inconclusive)

Cc1ccc(NC(=O)CN2C(=O)NC3(CCCC3)C2=O)c(Cl)c1
EC50 [1]: > 195 µM (not active)

COc1ccccc1-c1cc(NCc2cccs2)ncn1
AC50 (Cytochrome P450 3A4): 31.6 µM (inconclusive)

CC1CC1C(=O)OCc1cc(=O)n2cc(Br)ccc2n1 (stereo unspecified)
EC50 (H4): > 120 µM (not active)
EC50 [6]: 0.102 µM (active)

C=C1/C(=C\C=C2/CCC[C@]3(C)[C@@H]([C@H](C)/C=C/[C@@H](O)C4CC4)CC[C@@H]23)C[C@@H](O)C[C@@H]1O [CALCIPOTRIENE]
AC50 [2]: 8.81 µM (active)

COc1ccc(-n2c(C)nnc2O)cc1OC
AC50 (Cytochrome P450 2C9): 1.78 µM (inconclusive)

COc1ccc(Oc2ncc3nc(-c4cccc(C#N)c4)c(=O)n(CCC#N)c3n2)cc1
AC50 (Cytochrome P450 1A2): 25.1 µM (inconclusive)
AC50 (Cytochrome P450 2C9): 25.1 µM (inconclusive)

CCN(CC)S(=O)(=O)c1ccc(OC)c(NC(=O)CSc2ccccc2)c1
AC50 (Cytochrome P450 3A4): 31.6 µM (inconclusive)

COc1ccc(-c2nc3cnc(N4CCNCC4)nc3n(Cc3cccs3)c2=O)cc1
AC50 (Cytochrome P450 2C9): 39.8 µM (inconclusive)

C[C@H](C(=O)c1ccccc1)[C@@H](c1ccccc1)N1CCOCC1
AC50 (Cytochrome P450 3A4): 0.501 µM (inconclusive)

Cc1ccc(N2C(=O)c3ccccc3C2Nc2ccccc2F)nc1 (stereo unspecified)
EC50 [1]: > 195 µM (not active)

COc1ccc(-c2oc3ccc(N4CCOCC4)cc3c2C#CCO)cc1
AC50 [2]: 3.96 µM (active)

COc1cc(/C=N/NC(=O)c2cc(C)oc2C)ccc1O
EC50 [1]: > 195 µM (not active)
IC50 [7]: 37.6 µM (active)

CC(C)CCNc1nc(N)c([N+](=O)[O-])c(NCC2CCCO2)n1 (stereo unspecified)
EC50 [3]: 12 µM (active)
EC50 [4]: > 120 µM (not active)
EC50 [5]: > 120 µM (not active)

CSc1ccc2nnc(-c3cccc(F)c3)n2n1
AC50 (Cytochrome P450 2C9): 39.8 µM (inconclusive)

Cc1cccc(C(=O)N/N=C/c2ccc(OC3CSC3)cc2)c1
AC50 [2]: 1.71 µM (active)

CC(C)CN(C(=O)CCCSc1nc2ccccc2[nH]1)c1c(N)n(Cc2ccccc2)c(=O)[nH]c1=O
EC50 [1]: > 195 µM (not active)

CN(C)CCC[C@@]1(c2ccc(F)cc2)OCc2cc(C#N)ccc21 [ESCITALOPRAM]
AC50 (Cytochrome P450 2D6): 39.8 µM (inconclusive) and 12.6 µM (inconclusive)

CCCc1[nH]nc2c1/C(=N/O)CC(c1ccccc1)C2 (stereo unspecified)
EC50 [3]: 12.8 µM (active)
EC50 [4]: > 120 µM (not active)
EC50 [5]: 13.4 µM (active)
